{
  "source": "paper PMC10149367",
  "about": "“The ferroptosis inducing compounds RSL3 and ML162 are not direct inhibitors of GPX4 but of TXNRD1” (Redox Biology, 2023)",
  "key": {"[1]": {"molecular_target": "T1, TXNRD1 (Homo sapiens, UniProt Q16881)", "T1 construct": "made in house", "T1 sequence (Q16881 1-499 isoform Q16881-5)": "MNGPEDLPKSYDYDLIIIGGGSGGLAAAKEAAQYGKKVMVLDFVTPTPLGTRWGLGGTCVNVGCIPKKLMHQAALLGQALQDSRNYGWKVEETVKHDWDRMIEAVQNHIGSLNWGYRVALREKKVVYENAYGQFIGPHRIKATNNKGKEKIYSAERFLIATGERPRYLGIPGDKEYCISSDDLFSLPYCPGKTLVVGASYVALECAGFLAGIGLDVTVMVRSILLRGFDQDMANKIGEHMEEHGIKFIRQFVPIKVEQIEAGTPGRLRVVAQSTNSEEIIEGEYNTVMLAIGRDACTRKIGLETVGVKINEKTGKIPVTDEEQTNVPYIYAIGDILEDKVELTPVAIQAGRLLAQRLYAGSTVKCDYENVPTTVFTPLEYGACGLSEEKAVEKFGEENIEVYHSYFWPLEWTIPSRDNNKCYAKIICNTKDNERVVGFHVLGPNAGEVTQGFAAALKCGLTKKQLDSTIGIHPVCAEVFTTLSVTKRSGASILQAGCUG", "test": "TXNRD1 activity assay, pure enzyme (Fig. 1A)", "format": "biochemical", "experimental": "Recombinant human proteins—Recombinant human selenoprotein GPX and TXNRD isoenzymes as well as recombinant human GR were cloned, expressed, and purified as described previously [[26], [27], [28]].\nTXNRD1 selenite and DTNB assays were run as previously described [[26], [27], [28]]. Dose-response curves and IC50s were generated using Excel and GraphPad Prism. Briefly, initial slopes of NADPH consumption were normalized to DMSO controls and IC50s were calculated using log(inhibitor) vs. response—Variable slope (four parameters)."}, "[2]": {"molecular_target": "T1, TXNRD1", "test": "nano differential scanning fluorimetry, TXNRD1", "format": "binding", "conditions": "100 μM compound", "experimental": "Nano differential scanning fluorimetry—Real-time monitoring of fluorescence emission at 330 nm and 350 nm (excitation wavelength: 280 nm) and backscattering absorbance of GPX4 and TXNRD1 samples in the presence of compound was performed using a NanoTemper Prometheus NT.48 instrument. […] Standard capillaries were used, and temperature was increased from 25 to 95 °C with a ramp rate of 4.0 °C/min. Three biological replicates were carried out for each condition, and their means and standard deviations are depicted."}, "[3]": {"molecular_target": "T2, TXNRD1 (Homo sapiens, UniProt Q16881)", "T2 construct": "RX1 probe that specifically reports upon TXNRD1 enzymatic activity in live cells; endogenous in cells; host or cells: A549", "T2 sequence (Q16881 151-649 limits assumed)": "T1 sequence (Q16881 1-499 isoform Q16881-5)", "test": "Cellular TXNRD1 assay with RX1 probe in A549 cells", "format": "cell-based", "conditions": "A549, 4 h incubation; RSL3 and ML162 at 1 μM or higher", "procedure": "Cellular TXNRD1 assay—20,000 or 10,000 A549 cells (for 4 h or 12 h and 24 h compound incubation respectively) were seeded in 96-well plates (microplates, 96 well, F-bottom, black, clear bottom, ViewPlateTM-96 F TC, PerkinElmer), in a total volume of 100 μL full DMEM (supplemented with 10% FBS and 100 nM Na2SeO3). […] The cells were subsequently incubated for the respective mentioned time, washed once with full DMEM and fresh, full DMEM, containing 75 μM RX1 and 0.75% DMSO, was added and the first fluorescent measurement was conducted immediately (timepoint = 0) using a Tecan Infinite M200 plate reader (ex/em 355/520). To follow the kinetic activation of RX1, a fluorescent measurement was done every hour for 6 h. Between measurements, cells were stored at 37 °C and 5% CO2. As a control, cells treated with compounds, but not with RX1, just the respective DMSO content, were used for background fluorescent. To determine how the cells were viable throughout the RX1 assay, the control cells were used for a viability measurement, using CellTiter-Glo® Luminescent Cell Viability Assay, after the final fluorescent measurement. For final data analysis, raw data was processed using Microsoft Excel and GraphPad Prism. In brief, the slope of the activated RX1 fluorescence increase was in each case calculated and normalized, using the viability measurement of the control cells."}, "[4]": {"test_system": "A549 cells", "test": "Cytotoxicity assay, A549 cells", "format": "cell-based, human", "experimental": "Cell culture—H1975 and A549 cells were cultured in RPMI-1640 medium (HyClone) with Earle's salts supplemented and penicillin/streptomycin (100 μg/ml), while HT1080 cells were cultured in MEM medium for Fig. 2 experiments. For all other cellular experiments, A549 cells were cultured in DMEM 4.5 g/L glucose medium (Gibco), and H1975 cells in RPMI-1640 ATCC Modification (Gibco). Cell cultures were maintained at 37 °C in 5% CO2 in a medium containing 10% fetal bovine serum (FBS) (GE Healthcare, A15-102 for Fig. 2 experiments and Sigma, F7524 for all others). Experiments were performed with or without supplementation with 100 nM sodium selenite as described.\nCytotoxicity assays— Cells were seeded in a 96-well plate at the density of 3 × 10^3 per well and allowed to adhere overnight. After which, cells were treated with various concentrations of compound for the indicated times, whereupon cell viability was determined using Cell Quanti-Blue™ Cell Viability Assay Kits (Nordic Diagnostica, CQBL-10K). Briefly, QUANTI-Blue Reagent (10 μL) was added to each well, incubated at 37 °C in 5% CO2 for 3 h, and then the plates were measured at 540nm/600 nm (Ex/Em) using the Tecan Microplate Reader (Morrisville NC, USA)."}, "[5]": {"molecular_target": "T3, GPX4 (Homo sapiens, UniProt P36969)", "T3 construct": "We thus performed immunoblot analyses for GPX4 in A549 cells; endogenous in cells; host or cells: A549", "T3 sequence (P36969 1-197)": "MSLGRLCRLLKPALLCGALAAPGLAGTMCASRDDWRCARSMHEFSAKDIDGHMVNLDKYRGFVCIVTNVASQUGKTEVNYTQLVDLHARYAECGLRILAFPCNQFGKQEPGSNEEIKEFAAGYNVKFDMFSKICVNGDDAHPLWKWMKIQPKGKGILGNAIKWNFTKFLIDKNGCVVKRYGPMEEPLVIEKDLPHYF", "test": "GPX4 immunoblot of treated A549 cells", "format": "cell-based", "conditions": "A549, 3 μM, 24 h", "experimental": "Western blots—A549 and H1975 cells cultured for at least 72 h in the presence of 100 nM Na2SeO3 (Sigma) were seeded in 90 mm dishes (VWR) at 1 × 10^6 cells per dish for 18 h prior to main treatments. Four hours after seeding dishes, cells were pretreated with 2 μM Fer-1 for 14 h prior to adding RSL3, when indicated. After 14 h, main treatments with TRi-1, TRi-2, RSL3, ML162, ML210 or 0.03% v/v DMSO in doses indicated in each figure were added for 6 or 24 h. Total DMSO content was 0.05%. Cells were then scraped, washed in PBS, and suspended in 150–200 μL lysis buffer containing 50 mM Tris-HCl (pH 7.5), 2 mM EDTA, 0.15 M NaCl, 1% Triton X-100, and cOmplete protease inhibitor cocktail (Roche). Supernatants were collected after 30 s of sonication, and 30 min centrifugation at 17000×g, and protein concentration was measured using Pierce bicinchoninic acid (BCA) protein assay kit (Thermo Fischer Scientific). […] Chemiluminescent signal was detected using anti-rabbit and anti-mouse HRP-IgG secondary antibodies (Southern Biotech, 4030–05, LOT A2718-MM00 and 1030–05, LOT L3919-XE81B respectively) and ECL detection reagent (Cytiva Amersham). Protein quantification based on band densitometry was performed in Quantity One and Image Lab (BioRad)."}, "[6]": {"set-up": "method as in PMID 29444979", "conditions": "given at high doses to mice; cited from earlier work"}, "[7]": {"test_system": "malondialdehyde (MDA) and Ptgs2 mRNA levels", "set-up": "method as in PMID 32732975", "conditions": "C57BL/6 mice; rescued with Fer-1; cited from earlier work"}, "[8]": {"test_system": "GPX4", "set-up": "method as in PMID 34788728", "conditions": "cited from earlier work"}, "[9]": {"test_system": "A549 cells", "test": "A549 viability in cellular TXNRD1 (RX1) experiments", "conditions": "A549, 4 h, Extended Data Fig. 3A", "procedure": "Cellular TXNRD1 assay—20,000 or 10,000 A549 cells (for 4 h or 12 h and 24 h compound incubation respectively) were seeded in 96-well plates (microplates, 96 well, F-bottom, black, clear bottom, ViewPlateTM-96 F TC, PerkinElmer), in a total volume of 100 μL full DMEM (supplemented with 10% FBS and 100 nM Na2SeO3). The cells were incubated for 16 h at 37 °C and 5% CO2, followed by media change and addition of indicated compounds at respective concentrations (0.1 μM–20 μM), including 0.6% DMSO. The cells were subsequently incubated for the respective mentioned time, washed once with full DMEM and fresh, full DMEM, containing 75 μM RX1 and 0.75% DMSO, was added and the first fluorescent measurement was conducted immediately (timepoint = 0) using a Tecan Infinite M200 plate reader (ex/em 355/520). To follow the kinetic activation of RX1, a fluorescent measurement was done every hour for 6 h. Between measurements, cells were stored at 37 °C and 5% CO2. As a control, cells treated with compounds, but not with RX1, just the respective DMSO content, were used for background fluorescent. To determine how the cells were viable throughout the RX1 assay, the control cells were used for a viability measurement, using CellTiter-Glo® Luminescent Cell Viability Assay, after the final fluorescent measurement. For final data analysis, raw data was processed using Microsoft Excel and GraphPad Prism. In brief, the slope of the activated RX1 fluorescence increase was in each case calculated and normalized, using the viability measurement of the control cells.\nExtended Data Figure 3: A549 cytotoxicity in cellular TXNRD1 experiments following final\nA) Cell viability following 4-hour incubation with\ncompounds; B) Viability following 12-hour incubation with compounds; C) Viability\nfollowing 24 -hour incubation with compounds. The cell viability in was in each case measured\nusing the Cell Quanti-BlueTM Cell Viability Assay Kit and the data are presented as mean ±\ns.d. of n = 3 biological replicates, each containing n = 3 technical replicates."}},
  "data": [
    {"smiles": "COc1ccc([N+](=O)[O-])c(S(=O)(=O)c2ccc(Cl)cc2)n1", "note": "[TRi-1]", "values": [
      {"measurement": "Specificity among GPX1, GPX4, GR and TXNRD1", "setting": "[1]; pure enzyme systems, Fig. 1A lower panels", "result": "specific inhibitors of TXNRD1"},
      {"measurement": "IC50", "setting": "[1]; recombinant TXNRD1, Fig. 1A assay conditions, read-out: IC50 TXNRD1 inhibition", "result": "~0.5", "unit": "µM"},
      {"measurement": "Thermal stabilization of TXNRD1", "setting": "[2]", "result": "displaying thermal stabilization of the enzyme"},
      {"measurement": "Effect on cellular TXNRD1 activity (RX1) at 4 h", "setting": "[3]", "result": "effectively inhibit cellular TXNRD1 activity"},
      {"measurement": "IC50", "setting": "[4]; 24 h, media not supplemented with selenium", "result": "~20", "unit": "µM"},
      {"measurement": "Effect of ferrostatin-1 or MitoTEMPO co-treatment on cytotoxicity", "setting": "[4]; A549, 24 h, no selenium supplementation", "result": "co-treatment with neither ferrostatin-1 nor MitoTEMPO had any effect"},
      {"measurement": "Cell viability", "setting": "[4]; A549, 24 h, under all tested conditions (with/without Se, blockers)", "result": "about 40%"},
      {"measurement": "Difference in response profiles between cell lines", "setting": "[4]; A549, H1975 and HT1080, 24 h", "result": "no stark difference in response profiles"},
      {"measurement": "GPX4 expression levels compared to DMSO controls (immunoblot)", "setting": "[5]", "result": "no obvious changes in its expression levels"},
      {"measurement": "Antitumoral effect in mice", "setting": "[6]", "result": "antitumoral properties"},
      {"measurement": "Toxicity to mice", "setting": "[6]", "result": "lack overt toxicity"},
      {"measurement": "MDA and Ptgs2 levels", "setting": "[7]", "result": "increase MDA and Ptgs2 levels"},
      {"measurement": "Effect on GPX4 thermostability", "setting": "[8]", "result": "no major effect"},
      {"measurement": "Effect on cell viability at 4 h", "setting": "[9]", "result": "no overt effects on viability"}
    ]}
  ]
}
